Test results published in publication PMC11711049 (Cancer Science, 2024).

System: patients with advanced gastric cancer and cholangiocarcinoma
Experiment: Safety assessments
Assay type: in vivo, human
[1] = 16 evaluable patients, 140 mg once daily

## CNC(=O)n1ccc2cc(Oc3ccnc(NC(=O)c4ccc(C5CCN(CCO)CC5)cc4)c3)c(OCCOC)cc21 [Tasurgratinib]
140 mg once daily
  SAEs considered related to the study drug: none and No treatment‐related SAEs
  dose reductions attributed to AST increased: 1 n
  dose reductions attributed to PPE syndrome: 2 n
  dose reductions attributed to decreased appetite: 1 n
  dose reductions attributed to paronychia: 2 n
  dose reductions attributed to stomatitis: 1 n
  drug‐related deaths: no drug‐related deaths
  severity of all hyperphosphatemia events: grade 1 or 2
140 mg once daily, N = 16
  ALT increased, TEAEs All grades: 3 (18.8) n (%)
  ALT increased, TEAEs Grade ≥3: 1 (6.3) n (%)
  ALT increased, TRAEs All grades: 2 (12.5) n (%)
  ALT increased, TRAEs Grade ≥3: 0 (0.0) n (%)
  AST increased, TEAEs All grades: 4 (25.0) n (%)
  AST increased, TEAEs Grade ≥3: 2 (12.5) n (%)
  AST increased, TRAEs All grades: 3 (18.8) n (%)
  AST increased, TRAEs Grade ≥3: 1 (6.3) n (%)
  Abdominal distension, TEAEs All grades: 4 (25.0) n (%)
  Abdominal distension, TEAEs Grade ≥3: 1 (6.3) n (%)
  Abdominal distension, TRAEs All grades: 0 (0.0) n (%)
  Abdominal distension, TRAEs Grade ≥3: 0 (0.0) n (%)
  Abdominal pain, TEAEs All grades: 2 (12.5) n (%)
  Abdominal pain, TEAEs Grade ≥3: 0 (0.0) n (%)
  Abdominal pain, TRAEs All grades: 0 (0.0) n (%)
  Abdominal pain, TRAEs Grade ≥3: 0 (0.0) n (%)
  All AEs, TEAEs All grades: 16 (100.0) n (%)
  All AEs, TEAEs Grade ≥3: 11 (68.8) n (%)
  All AEs, TRAEs All grades: 16 (100.0) n (%)
  All AEs, TRAEs Grade ≥3: 2 (12.5) n (%)
  Anemia, TEAEs All grades: 4 (25.0) n (%)
  Anemia, TEAEs Grade ≥3: 2 (12.5) n (%)
  Anemia, TRAEs All grades: 1 (6.3) n (%)
  Anemia, TRAEs Grade ≥3: 0 (0.0) n (%)
  Blood alkaline phosphatase increased, TEAEs All grades: 3 (18.8) n (%)
  Blood alkaline phosphatase increased, TEAEs Grade ≥3: 2 (12.5) n (%)
  Blood alkaline phosphatase increased, TRAEs All grades: 1 (6.3) n (%)
  Blood alkaline phosphatase increased, TRAEs Grade ≥3: 0 (0.0) n (%)
  Blood creatinine increased, TEAEs All grades: 5 (31.3) n (%)
  Blood creatinine increased, TEAEs Grade ≥3: 0 (0.0) n (%)
  Blood creatinine increased, TRAEs All grades: 3 (18.8) n (%)
  Blood creatinine increased, TRAEs Grade ≥3: 0 (0.0) n (%)
  Cancer pain, TEAEs All grades: 2 (12.5) n (%)
  Cancer pain, TEAEs Grade ≥3: 0 (0.0) n (%)
  Cancer pain, TRAEs All grades: 0 (0.0) n (%)
  Cancer pain, TRAEs Grade ≥3: 0 (0.0) n (%)
  Constipation, TEAEs All grades: 3 (18.8) n (%)
  Constipation, TEAEs Grade ≥3: 0 (0.0) n (%)
  Constipation, TRAEs All grades: 1 (6.3) n (%)
  Constipation, TRAEs Grade ≥3: 0 (0.0) n (%)
  Decreased appetite, TEAEs All grades: 7 (43.8) n (%)
  Decreased appetite, TEAEs Grade ≥3: 2 (12.5) n (%)
  Decreased appetite, TRAEs All grades: 2 (12.5) n (%)
  Decreased appetite, TRAEs Grade ≥3: 0 (0.0) n (%)
  Diarrhea, TEAEs All grades: 6 (37.5) n (%)
  Diarrhea, TEAEs Grade ≥3: 1 (6.3) n (%)
  Diarrhea, TRAEs All grades: 4 (25.0) n (%)
  Diarrhea, TRAEs Grade ≥3: 0 (0.0) n (%)
  Dry eye, TEAEs All grades: 2 (12.5) n (%)
  Dry eye, TEAEs Grade ≥3: 0 (0.0) n (%)
  Dry eye, TRAEs All grades: 1 (6.3) n (%)
  Dry eye, TRAEs Grade ≥3: 0 (0.0) n (%)
  Dry mouth, TEAEs All grades: 3 (18.8) n (%)
  Dry mouth, TEAEs Grade ≥3: 0 (0.0) n (%)
  Dry mouth, TRAEs All grades: 3 (18.8) n (%)
  Dry mouth, TRAEs Grade ≥3: 0 (0.0) n (%)
  Dry skin, TEAEs All grades: 3 (18.8) n (%)
  Dry skin, TEAEs Grade ≥3: 0 (0.0) n (%)
  Dry skin, TRAEs All grades: 3 (18.8) n (%)
  Dry skin, TRAEs Grade ≥3: 0 (0.0) n (%)
  Dysgeusia, TEAEs All grades: 6 (37.5) n (%)
  Dysgeusia, TEAEs Grade ≥3: 0 (0.0) n (%)
  Dysgeusia, TRAEs All grades: 5 (31.3) n (%)
  Dysgeusia, TRAEs Grade ≥3: 0 (0.0) n (%)
  Epistaxis, TEAEs All grades: 2 (12.5) n (%)
  Epistaxis, TEAEs Grade ≥3: 0 (0.0) n (%)
  Epistaxis, TRAEs All grades: 1 (6.3) n (%)
  Epistaxis, TRAEs Grade ≥3: 0 (0.0) n (%)
  Headache, TEAEs All grades: 2 (12.5) n (%)
  Headache, TEAEs Grade ≥3: 1 (6.3) n (%)
  Headache, TRAEs All grades: 0 (0.0) n (%)
  Headache, TRAEs Grade ≥3: 0 (0.0) n (%)
  Hyperphosphatemia, TEAEs All grades: 16 (100.0) n (%)
  Hyperphosphatemia, TEAEs Grade ≥3: 0 (0.0) n (%)
  Hyperphosphatemia, TRAEs All grades: 16 (100.0) n (%)
  Hyperphosphatemia, TRAEs Grade ≥3: 0 (0.0) n (%)
  Hypoalbuminemia, TEAEs All grades: 3 (18.8) n (%)
  Hypoalbuminemia, TEAEs Grade ≥3: 1 (6.3) n (%)
  Hypoalbuminemia, TRAEs All grades: 0 (0.0) n (%)
  Hypoalbuminemia, TRAEs Grade ≥3: 0 (0.0) n (%)
  Insomnia, TEAEs All grades: 2 (12.5) n (%)
  Insomnia, TEAEs Grade ≥3: 0 (0.0) n (%)
  Insomnia, TRAEs All grades: 0 (0.0) n (%)
  Insomnia, TRAEs Grade ≥3: 0 (0.0) n (%)
  Lipase increased, TEAEs All grades: 2 (12.5) n (%)
  Lipase increased, TEAEs Grade ≥3: 2 (12.5) n (%)
  Lipase increased, TRAEs All grades: 1 (6.3) n (%)
  Lipase increased, TRAEs Grade ≥3: 1 (6.3) n (%)
  Malaise, TEAEs All grades: 2 (12.5) n (%)
  Malaise, TEAEs Grade ≥3: 0 (0.0) n (%)
  Malaise, TRAEs All grades: 2 (12.5) n (%)
  Malaise, TRAEs Grade ≥3: 0 (0.0) n (%)
  Nail disorder, TEAEs All grades: 2 (12.5) n (%)
  Nail disorder, TEAEs Grade ≥3: 0 (0.0) n (%)
  Nail disorder, TRAEs All grades: 2 (12.5) n (%)
  Nail disorder, TRAEs Grade ≥3: 0 (0.0) n (%)
  Nasopharyngitis, TEAEs All grades: 2 (12.5) n (%)
  Nasopharyngitis, TEAEs Grade ≥3: 0 (0.0) n (%)
  Nasopharyngitis, TRAEs All grades: 0 (0.0) n (%)
  Nasopharyngitis, TRAEs Grade ≥3: 0 (0.0) n (%)
  PPE syndrome, TEAEs All grades: 10 (62.5) n (%)
  PPE syndrome, TEAEs Grade ≥3: 0 (0.0) n (%)
  PPE syndrome, TRAEs All grades: 10 (62.5) n (%)
  PPE syndrome, TRAEs Grade ≥3: 0 (0.0) n (%)
  Paronychia, TEAEs All grades: 9 (56.3) n (%)
  Paronychia, TEAEs Grade ≥3: 0 (0.0) n (%)
  Paronychia, TRAEs All grades: 8 (50.0) n (%)
  Paronychia, TRAEs Grade ≥3: 0 (0.0) n (%)
  Platelet count decreased, TEAEs All grades: 2 (12.5) n (%)
  Platelet count decreased, TEAEs Grade ≥3: 0 (0.0) n (%)
  Platelet count decreased, TRAEs All grades: 1 (6.3) n (%)
  Platelet count decreased, TRAEs Grade ≥3: 0 (0.0) n (%)
  Pruritus, TEAEs All grades: 2 (12.5) n (%)
  Pruritus, TEAEs Grade ≥3: 0 (0.0) n (%)
  Pruritus, TRAEs All grades: 2 (12.5) n (%)
  Pruritus, TRAEs Grade ≥3: 0 (0.0) n (%)
  Pyrexia, TEAEs All grades: 3 (18.8) n (%)
  Pyrexia, TEAEs Grade ≥3: 0 (0.0) n (%)
  Pyrexia, TRAEs All grades: 1 (6.3) n (%)
  Pyrexia, TRAEs Grade ≥3: 0 (0.0) n (%)
  Stomatitis, TEAEs All grades: 6 (37.5) n (%)
  Stomatitis, TEAEs Grade ≥3: 1 (6.3) n (%)
  Stomatitis, TRAEs All grades: 6 (37.5) n (%)
  Stomatitis, TRAEs Grade ≥3: 0 (0.0) n (%)
  Tumor pain, TEAEs All grades: 2 (12.5) n (%)
  Tumor pain, TEAEs Grade ≥3: 1 (6.3) n (%)
  Tumor pain, TRAEs All grades: 0 (0.0) n (%)
  Tumor pain, TRAEs Grade ≥3: 0 (0.0) n (%)
  Tumor‐associated fever, TEAEs All grades: 2 (12.5) n (%)
  Tumor‐associated fever, TEAEs Grade ≥3: 0 (0.0) n (%)
  Tumor‐associated fever, TRAEs All grades: 0 (0.0) n (%)
  Tumor‐associated fever, TRAEs Grade ≥3: 0 (0.0) n (%)
  Vomiting, TEAEs All grades: 2 (12.5) n (%)
  Vomiting, TEAEs Grade ≥3: 1 (6.3) n (%)
  Vomiting, TRAEs All grades: 0 (0.0) n (%)
  Vomiting, TRAEs Grade ≥3: 0 (0.0) n (%)
  Weight decreased, TEAEs All grades: 2 (12.5) n (%)
  Weight decreased, TEAEs Grade ≥3: 0 (0.0) n (%)
  Weight decreased, TRAEs All grades: 0 (0.0) n (%)
  Weight decreased, TRAEs Grade ≥3: 0 (0.0) n (%)
[1]
  any‐grade TEAE: ALT increased: 18.8%
  any‐grade TEAE: AST increased: 25.0%
  any‐grade TEAE: abdominal distension: 25.0%
  any‐grade TEAE: anemia: 25.0%
  any‐grade TEAE: blood alkaline phosphatase increased: 18.8%
  any‐grade TEAE: blood creatinine increased: 31.3%
  any‐grade TEAE: constipation: 18.8%
  any‐grade TEAE: decreased appetite: 43.8%
  any‐grade TEAE: diarrhea: 37.5%
  any‐grade TEAE: dry mouth: 18.8%
  any‐grade TEAE: dry skin: 18.8%
  any‐grade TEAE: dysgeusia: 37.5%
  any‐grade TEAE: hyperphosphatemia: 100%
  any‐grade TEAE: hypoalbuminemia: 18.8%
  any‐grade TEAE: palmar‐plantar erythrodysesthesia (PPE) syndrome: 62.5%
  any‐grade TEAE: paronychia: 56.3%
  any‐grade TEAE: pyrexia: 18.8%
  any‐grade TEAE: stomatitis: 37.5%
16 patients, 140 mg once daily
  any‐grade treatment‐related TEAE: ALT increased: 12.5%
  any‐grade treatment‐related TEAE: AST increased: 18.8%
  any‐grade treatment‐related TEAE: PPE syndrome: 62.5%
  any‐grade treatment‐related TEAE: blood creatinine increased: 18.8%
  any‐grade treatment‐related TEAE: decreased appetite: 12.5%
  any‐grade treatment‐related TEAE: diarrhea: 25.0%
  any‐grade treatment‐related TEAE: dry mouth: 18.8%
  any‐grade treatment‐related TEAE: dry skin: 18.8%
  any‐grade treatment‐related TEAE: dysgeusia: 31.3%
  any‐grade treatment‐related TEAE: hyperphosphatemia: 100%
  any‐grade treatment‐related TEAE: malaise: 12.5%
  any‐grade treatment‐related TEAE: nail disorder: 12.5%
  any‐grade treatment‐related TEAE: paronychia: 50.0%
  any‐grade treatment‐related TEAE: pruritus: 12.5%
  any‐grade treatment‐related TEAE: stomatitis: 37.5%
  grade ≥3 treatment‐related TEAE: AST increased: 1 n
  grade ≥3 treatment‐related TEAE: lipase increased: 1 n
  grade ≥3 treatment‐related TEAE: retinopathy: 1 n
  patients who experienced a TEAE of grade ≥3: 68.8%
Five of 16 patients, 140 mg once daily
  patients with treatment‐emergent SAEs: 31.3%
In five patients, 140 mg once daily
  total treatment‐emergent serious AEs (SAEs) reported: 11
N = 2
  eye disorder: dry eye: 12.5%
Once daily
  recommended dose for subsequent phase II evaluation: 140 mg
One patient (cholecystitis acute and septic shock, not related)
  patients with TEAEs leading to discontinuation of the study drug: 6.3%
Six of 16 patients
  patients with dose reductions due to treatment‐related TEAEs: 37.5%
Thirteen events in seven patients
  patients with eye disorder events: 43.8%
Two of 16 patients, 140 mg once daily
  patients who experienced grade ≥3 treatment‐related TEAEs: 12.5%
